# Measurements as given in patent US9981969B2, “Imidazole derivatives and methods of use thereof for improving the pharmacokinetics of a drug” (MERCK SHARP & DOHME CORP., priority 2013, dated 2018).
# pIC50: −log10 of the molar value.
# How the values were obtained:
# CYP2C19 = biological target: T1, CYP2C19 (Homo sapiens, UniProt P33261); test: Cocktail assay for CYPs in human liver microsomes, mephenytoin 4′-hydroxylation (2C19); type: biochemical; details: 30 μM mephenytoin, 10 min at 37° C.
# T1 construct: 0.1 mg/mL protein human liver microsomes (BD Gentest); tissue BD Gentest; host or cells: human liver microsomes
# Method: (§1) This assay was performed in a standard 96-well plate design. IC50 values were calculated from the percent inhibition observed for each test compound at 6 concentrations (for example, 0.0032, 0.016, 0.08, 0.4, 2 and 10 μM). The incubation substrate mix contains 10 μM phenacetin (1A2), 5 μM diclofenac (2C9), 30 μM mephenytoin (2C19), 5 μM dextromethorphan (2D6) and 2 μM midazolam (3A4), 0.1 mg/mL protein human liver microsomes (BD Gentest), 1 mM NAPDH, 3.3 mM MgCl2 and 100 mM potassium phosphate buffer (pH 7.4). The production of the metabolite of each probe substrate was determined after incubation for 10 min at 37° C. Quantitation of the metabolite peak area ratio against an internal standard (tolbutamide) was determined by LC/MS/MS analysis following acetonitrile treatment of the incubations.
# (§2) Samples were analyzed in the MRM mode with a SCIEX API-4000 mass spectrometer (Applied Biosystems, Foster City, Calif.), with a Shimadzu LC-20 AD pump (Shimadzu corporation, Kyoto, JP) and a CTC PAL autosampler (Agilent Technologies, Switzerland). A Phenomenex, Luna, 5 μm, 100A, 2.00×30 mm HPLC column was used for the separation. The mobile phases were: (A) 0.1% formic acid in water and (B) 0.1% formic acid in acetonitrile. The binary gradient was as follows. AutoSampler: CTC PAL
# (§3) The peak area ratio of the analyte to the internal standard was used to quantify the metabolite. The values of peak area ratios in the presence of test compound were compared to those of maximum or minimum controls and were expressed as % inhibition by interpolating between the maximum and minimum peak area ratios. Incubations with no inhibitor were defined as the maxima. The following equation was used to calculate the % inhibition: [1−[(X−Low control)/(High control−Low control)]]*100 For the IC50 calculation, SigmaPlot was used to plot the mean % inhibition versus the test compound concentrations and for non-linear regression analysis of the data. Depending on the range of data points defining the inhibition curve, the data may have been fit to the 4-parameter logistic equation.
# CYP3A4 = biological target: T2, CYP3A4 (Homo sapiens, UniProt P08684); test: Cocktail assay for CYPs in human liver microsomes, midazolam 1′-hydroxylation (3A4); type: biochemical; details: 2 μM midazolam, 10 min at 37° C.
# T2 construct: 0.1 mg/mL protein human liver microsomes (BD Gentest); tissue BD Gentest; host or cells: human liver microsomes
# Method: as §1, §2, §3
# CYP2D6 = biological target: T3, CYP2D6 (Homo sapiens, UniProt P10635); test: Cocktail assay for CYPs in human liver microsomes, dextromethorphan O-demethylation (2D6); type: biochemical; details: 5 μM dextromethorphan, 10 min at 37° C.
# T3 construct: 0.1 mg/mL protein human liver microsomes (BD Gentest); tissue BD Gentest; host or cells: human liver microsomes
# Method: as §1, §2, §3
# CYP2C9 = biological target: T4, CYP2C9 (Homo sapiens, UniProt P11712); test: Cocktail assay for CYPs in human liver microsomes, diclofenac 4′-hydroxylation (2C9); type: biochemical; details: 5 μM diclofenac, 10 min at 37° C.
# T4 construct: 0.1 mg/mL protein human liver microsomes (BD Gentest); tissue BD Gentest; host or cells: human liver microsomes
# Method: as §1, §2, §3
# human CYP11B1 = biological target: T5, human CYP11B1 (Homo sapiens, UniProt P15538); test: IC50 vs CYP11B1 by measurement of cortisol synthesis in V79 cells; type: cell-based; details: V79 cells expressing human CYP11B1, 1500 nM RSS, cortisol HTRF
# T5 construct: expressed in transfected cells
# T5 sequence (P15538 25-503): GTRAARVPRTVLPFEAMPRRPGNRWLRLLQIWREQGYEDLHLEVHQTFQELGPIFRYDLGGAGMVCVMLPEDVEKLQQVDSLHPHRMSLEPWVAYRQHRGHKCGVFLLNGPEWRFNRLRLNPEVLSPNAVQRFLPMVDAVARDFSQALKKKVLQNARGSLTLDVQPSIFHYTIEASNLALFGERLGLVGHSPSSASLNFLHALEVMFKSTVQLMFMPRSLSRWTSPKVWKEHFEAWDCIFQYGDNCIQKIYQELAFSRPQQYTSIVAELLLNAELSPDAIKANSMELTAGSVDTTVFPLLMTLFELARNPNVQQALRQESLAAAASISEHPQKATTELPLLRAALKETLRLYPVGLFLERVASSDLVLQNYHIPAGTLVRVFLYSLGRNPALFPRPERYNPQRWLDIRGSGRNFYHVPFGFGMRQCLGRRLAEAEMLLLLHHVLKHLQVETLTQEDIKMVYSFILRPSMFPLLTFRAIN
# Method: (§4) This assay was performed in a standard 384-well plate design using cultured V79 cells stably expressing human CYP11B1 or human CYP11B2. Test compounds at 10 concentrations (for example, 10000, 3333.3, 1111.1, 370.4, 123.5, 41.2, 13.7, 4.6, 1.5 and 0.5 nM) were added in 384-well plate after the cell-seeding procedure. The incubation substrate contains 1500 nM RSS for CYP11B1 assay/750 nM DOC for CYP11B2 assay. The Cortisol/Aldosterone production of cell culture supernatant was determined by Cortisol/Aldosterone HTRF kit after for about 15 hours incubation at RT (protect from light). IC50 (nM) values were calculated from the percent inhibition observed for each test compound at 10 concentrations.
# (§5) The assay plate was read using Envision (Perkin Elmer, Waltham, Mass.) at 665 nm and 590 nm (using Filter Barcode of 217#, 205#; Mirror Barcode of 446#).
# (§6) Data are analyzed using Assay Data Analyzer. All ratio data (665 nm/590 nm) are back calculated according to the standard curve, resulting in Cortisol/Aldosterone concentrations. IC50 (nM) values are reported as the Inflection Point (IP) of a four parameter fit of the titration data.
# (§7) The following equation was used to calculate the % inhibition: % Activity=100×{1−(Sample_back calculated Cortisol/Aldosterone concentration−LC_back calculated Cortisol/Aldosterone concentration)/(HC_back calculated Cortisol/Aldosterone concentration−LC_back calculated Cortisol/Aldosterone concentration)} Curve Fitting: Four Parameter Logistic: […]
# CYP1A2 = biological target: T6, CYP1A2 (Homo sapiens, UniProt P05177); test: Cocktail assay for CYPs in human liver microsomes, phenacetin O-deethylation (1A2); type: biochemical; details: 10 μM phenacetin, 10 min at 37° C.
# T6 construct: 0.1 mg/mL protein human liver microsomes (BD Gentest); tissue BD Gentest; host or cells: human liver microsomes
# T6 sequence (P05177 1-516): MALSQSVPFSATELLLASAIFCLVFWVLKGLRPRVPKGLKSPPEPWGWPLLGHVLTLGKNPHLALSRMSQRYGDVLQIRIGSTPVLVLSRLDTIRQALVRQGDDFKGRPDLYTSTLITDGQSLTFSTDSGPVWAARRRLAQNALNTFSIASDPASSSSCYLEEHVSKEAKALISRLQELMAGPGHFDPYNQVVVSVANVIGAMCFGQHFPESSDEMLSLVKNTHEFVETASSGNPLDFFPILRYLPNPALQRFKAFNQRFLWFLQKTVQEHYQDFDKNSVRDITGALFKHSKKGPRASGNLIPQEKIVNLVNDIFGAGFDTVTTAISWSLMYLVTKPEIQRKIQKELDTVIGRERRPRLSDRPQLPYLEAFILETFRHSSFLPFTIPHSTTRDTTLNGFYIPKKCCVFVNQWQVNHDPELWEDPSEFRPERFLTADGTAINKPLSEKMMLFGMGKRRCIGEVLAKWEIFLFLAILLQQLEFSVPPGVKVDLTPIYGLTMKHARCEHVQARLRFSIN
# Method: as §1, §2, §3
# human CYP11B2 = biological target: T7, human CYP11B2 (Homo sapiens, UniProt P19099); test: IC50 vs CYP11B2 by measurement of aldosterone synthesis in V79 cells; type: cell-based; details: V79 cells expressing human CYP11B2, 750 nM DOC, aldosterone HTRF
# T7 construct: expressed in transfected cells
# T7 sequence (P19099 25-503): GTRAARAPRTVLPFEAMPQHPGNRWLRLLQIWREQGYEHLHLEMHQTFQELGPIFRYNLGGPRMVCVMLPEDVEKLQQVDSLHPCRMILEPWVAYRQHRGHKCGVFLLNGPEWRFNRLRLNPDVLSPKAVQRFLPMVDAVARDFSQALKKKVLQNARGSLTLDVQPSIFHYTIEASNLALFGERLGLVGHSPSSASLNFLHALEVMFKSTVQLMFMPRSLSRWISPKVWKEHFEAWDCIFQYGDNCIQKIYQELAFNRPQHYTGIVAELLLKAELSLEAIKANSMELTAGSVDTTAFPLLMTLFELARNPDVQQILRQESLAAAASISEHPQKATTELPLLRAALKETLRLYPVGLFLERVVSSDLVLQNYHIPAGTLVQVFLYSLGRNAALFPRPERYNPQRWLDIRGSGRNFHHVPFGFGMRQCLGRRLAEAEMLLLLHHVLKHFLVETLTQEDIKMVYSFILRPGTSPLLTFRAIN
# Method: as §4, §5, §6, §7
# T2 sequence (P08684 whole entry): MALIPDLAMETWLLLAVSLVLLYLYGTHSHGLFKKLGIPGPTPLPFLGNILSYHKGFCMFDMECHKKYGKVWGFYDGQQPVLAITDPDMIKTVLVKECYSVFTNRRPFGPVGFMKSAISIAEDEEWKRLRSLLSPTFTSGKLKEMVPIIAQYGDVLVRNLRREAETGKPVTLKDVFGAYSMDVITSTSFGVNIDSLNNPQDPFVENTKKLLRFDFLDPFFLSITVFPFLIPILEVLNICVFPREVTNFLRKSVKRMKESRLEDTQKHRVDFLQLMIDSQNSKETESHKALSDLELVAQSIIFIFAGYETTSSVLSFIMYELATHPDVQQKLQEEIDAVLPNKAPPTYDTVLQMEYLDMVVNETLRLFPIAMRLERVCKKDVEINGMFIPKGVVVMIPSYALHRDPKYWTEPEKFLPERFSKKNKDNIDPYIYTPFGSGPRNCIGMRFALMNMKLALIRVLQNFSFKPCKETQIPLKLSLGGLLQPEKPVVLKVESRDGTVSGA
# T3 sequence (P10635 whole entry): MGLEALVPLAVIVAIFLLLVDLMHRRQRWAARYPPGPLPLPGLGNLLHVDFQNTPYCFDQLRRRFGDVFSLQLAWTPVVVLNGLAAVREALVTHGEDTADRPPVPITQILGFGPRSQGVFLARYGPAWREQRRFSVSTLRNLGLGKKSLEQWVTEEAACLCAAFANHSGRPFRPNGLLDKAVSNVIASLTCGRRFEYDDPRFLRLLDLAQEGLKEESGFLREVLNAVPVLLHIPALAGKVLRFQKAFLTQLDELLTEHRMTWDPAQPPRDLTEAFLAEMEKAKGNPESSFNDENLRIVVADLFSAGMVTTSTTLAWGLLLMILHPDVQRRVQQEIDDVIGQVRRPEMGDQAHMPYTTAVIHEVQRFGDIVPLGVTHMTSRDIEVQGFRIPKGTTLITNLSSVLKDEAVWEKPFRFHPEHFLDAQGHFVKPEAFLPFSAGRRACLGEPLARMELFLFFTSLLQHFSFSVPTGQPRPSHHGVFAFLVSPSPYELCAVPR
# T1 sequence (P33261 whole entry): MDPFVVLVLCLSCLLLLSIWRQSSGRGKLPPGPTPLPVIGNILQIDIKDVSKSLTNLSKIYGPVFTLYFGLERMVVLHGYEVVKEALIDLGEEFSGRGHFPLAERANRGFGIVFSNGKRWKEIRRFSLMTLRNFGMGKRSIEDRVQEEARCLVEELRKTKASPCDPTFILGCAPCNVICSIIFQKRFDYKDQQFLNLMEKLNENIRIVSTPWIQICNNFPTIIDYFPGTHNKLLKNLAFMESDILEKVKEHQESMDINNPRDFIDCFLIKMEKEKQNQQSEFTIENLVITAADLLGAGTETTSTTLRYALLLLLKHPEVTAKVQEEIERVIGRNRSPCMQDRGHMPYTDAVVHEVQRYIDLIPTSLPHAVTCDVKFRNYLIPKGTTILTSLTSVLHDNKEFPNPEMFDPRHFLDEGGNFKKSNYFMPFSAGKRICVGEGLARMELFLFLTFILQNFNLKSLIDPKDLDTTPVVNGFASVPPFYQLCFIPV
# T4 sequence (P11712 whole entry): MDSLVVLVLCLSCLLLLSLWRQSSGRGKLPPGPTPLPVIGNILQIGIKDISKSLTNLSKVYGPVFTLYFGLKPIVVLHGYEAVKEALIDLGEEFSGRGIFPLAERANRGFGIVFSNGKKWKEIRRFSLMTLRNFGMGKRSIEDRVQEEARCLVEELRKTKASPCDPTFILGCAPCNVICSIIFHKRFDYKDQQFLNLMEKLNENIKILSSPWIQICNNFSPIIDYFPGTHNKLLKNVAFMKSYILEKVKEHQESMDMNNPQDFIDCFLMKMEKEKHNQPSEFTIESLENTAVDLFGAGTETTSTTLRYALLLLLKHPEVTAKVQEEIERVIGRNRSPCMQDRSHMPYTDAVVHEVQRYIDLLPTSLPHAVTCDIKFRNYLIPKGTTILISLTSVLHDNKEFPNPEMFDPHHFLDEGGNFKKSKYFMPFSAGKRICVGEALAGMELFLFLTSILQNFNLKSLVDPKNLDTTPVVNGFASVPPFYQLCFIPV
SMILES,pIC50 (CYP2C19),pIC50 (CYP3A4),pIC50 (CYP2D6),pIC50 (CYP2C9),pIC50 (human CYP11B1),pIC50 (CYP1A2),pIC50 (human CYP11B2)
CO[C@H]1CN(C2CCN(C(=O)c3cncn3[C@@H](C)c3ccccc3-c3ccc(F)cc3)CC2)CC[C@H]1O [Compound 11],< 5.00,8.22,5.15,< 5.00,4.57,< 5.00,< 4.30
C[C@@H](c1ccccc1-c1ccc(F)cc1)n1cncc1C(=O)N1CCC(N2CCC(F)C(O)C2)CC1 (stereo partly shown) [Compound 19],< 5.00,8.24,< 5.00,< 5.00,4.49,< 5.00,< 4.30
C[C@@H](c1ccccc1-c1cccc2c1OCC2)n1cncc1C(=O)N1CCC2NCCO[C@@H]2C1 (stereo partly shown) [Compound 43],< 5.00,8.18,5.15,< 5.00,4.52,< 5.00,< 4.30
C[C@@H](c1ccccc1-c1ccc(F)cc1)n1cncc1C(=O)N1CCC(N2CCNC(=O)CC2)CC1 [Compound 21],< 5.00,8.17,< 5.00,< 5.00,< 4.30,< 5.00,< 4.30
C[C@@H](c1ccccc1C(C)(C)F)n1cncc1C(=O)N1CCC2NCCO[C@@H]2C1 (stereo partly shown) [Compound 46],< 5.00,7.96,5.24,< 5.00,< 4.30,< 5.00,4.64
C[C@@H](c1ccccc1-c1ccc(F)cc1)n1cncc1C(=O)N1CCC(N2CCn3c(nnc3C(F)(F)F)C2)CC1 [Compound 26],5.20,8.19,≤ 5.00,< 5.00,4.84,< 5.00,< 4.30
C[C@@H](c1ccccc1-c1ccc(F)cc1)n1cncc1C(=O)N1CCC(N2CCn3ncnc3C2)CC1 [Compound 27],< 5.00,8.24,< 5.00,< 5.00,4.95,< 5.00,4.62
C[C@@H](c1ccccc1-c1ccc(F)cc1)n1cncc1C(=O)N1CCn2c(nnc2C2CC2)C1 [Compound 5],5.12,8.21,≤ 5.00,< 5.00,4.37,< 5.00,< 4.30
C[C@H]1CN(C(=O)c2cncn2[C@@H](C)c2ccccc2-c2ccc(F)cc2)CC[C@H]1N1CC[C@@H](O)C1 [Compound 32],< 5.00,8.38,5.08,< 5.00,4.65,< 5.00,< 4.30
C[C@@H](c1ccccc1-c1ccc(F)cc1)n1cncc1C(=O)N1CCC2NC(=O)CO[C@@H]2C1 (mixture of isomers) [Compound 50],< 5.00,8.28,5.09,< 5.00,4.57,< 5.00,< 4.30
COc1ccccc1-c1ccccc1[C@H](C)n1cncc1C(=O)N1CCC2NCCO[C@@H]2C1 (stereo partly shown) [Compound 44],< 5.00,8.30,5.23,< 5.00,4.91,< 5.00,< 4.30
C[C@@H](c1ccccc1-c1ccc(F)c(F)c1F)n1cncc1C(=O)N1CCC2NCCO[C@@H]2C1 (stereo partly shown) [Compound 39],< 5.00,8.32,5.02,< 5.00,4.84,< 5.00,< 4.30
C[C@@H](c1ccccc1-c1ccc(F)cc1)n1cncc1C(=O)N1CCC(N2CCC(O)CC2)CC1 [Compound 1],< 5.00,8.17,5.18,< 5.00,4.48,< 5.00,< 4.30
CO[C@H]1CN(C2CCN(C(=O)c3cncn3[C@@H](C)c3ccccc3-c3ccc(F)cc3)CC2)CC[C@@H]1O [Compound 10],< 5.00,8.30,5.23,< 5.00,< 4.30,< 5.00,< 4.30
C[C@@H](c1ccccc1-c1ccccc1OC(F)(F)F)n1cncc1C(=O)N1CCC2NCCO[C@@H]2C1 (stereo partly shown) [Compound 42],< 5.00,8.33,< 5.00,< 5.00,5.25,< 5.00,< 4.30
C[C@@H](c1ccccc1-c1ccc(F)cc1)n1cncc1C(=O)N1CC[C@@H](N2CCNC(=O)C2)[C@@H](F)C1 [Compound 30],< 5.00,8.24,< 5.00,< 5.00,< 4.30,< 5.00,4.38
